In PubChem BioAssay (NCI) one finds TGI data, which are given here for six compounds.

Among the test systems are M14 melanoma; HOP-92 NSCLC; PC-3 prostate; UACC-257 melanoma; MALME-3M melanoma; HOP-62 NSCLC; SF-539 CNS; KM12 colon; NCI-H226 lung; CCRF-CEM leukemia; SK-MEL-28 melanoma; RXF 393 renal; NCI/ADR-RES ovarian; SF-268 CNS; LOX IMVI melanoma; UACC-62 melanoma.
Holding throughout (assay): NCI tumour cell line growth inhibition, 48 h

Structures are written as SMILES.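 Growth conditions: 96-well plates. Treatment: test compound, 48 hours, 5 concentrations. Analysis: linear interpolation between bracketing concentrations; unreached endpoints set to highest concentration. TGI is the concentration that stops growth completely.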

Turning to `COc1ccc(CCN2CCN(CCc3ccc(OC)cc3)CC2)cc1`, the TGI in the assay with M14 melanoma, with HOP-92 NSCLC, in the assay with PC-3 prostate, in the assay with UACC-257 melanoma, in the assay on MALME-3M melanoma and in the assay on HOP-62 NSCLC was greater than 100 µM each time. Besides, the TGI was greater than 100 µM in the assay on SF-539 CNS; greater than 100 µM in the assay on KM12 colon; greater than 100 µM with NCI-H226 lung; greater than 100 µM in the assay on CCRF-CEM leukemia; greater than 100 µM in the assay with SK-MEL-28 melanoma; 95.1 µM in the assay with RXF 393 renal. Also, the TGI with NCI/ADR-RES ovarian, with SF-268 CNS, with LOX IMVI melanoma and with UACC-62 melanoma was greater than 100 µM throughout.
`CN(C)/C=N/S(=O)(=O)c1nn2c(C=O)c(-c3ccc(Cl)cc3)nc2s1`: the TGI in the assay with M14 melanoma came out at 2.17 µM; with HOP-92 NSCLC it was 7.17 µM; with PC-3 prostate it was 9.38 µM; in the assay with UACC-257 melanoma, 9.83 µM; in the assay with MALME-3M melanoma, 3.2 µM; with HOP-62 NSCLC, 27.5 µM. For the same compound, the TGI in the assay with SF-539 CNS was found to be 5.21 µM; in the assay on KM12 colon, 17.6 µM; in the assay on NCI-H226 lung, 9.86 µM; with CCRF-CEM leukemia, 0.701 µM; in the assay on SK-MEL-28 melanoma, 3.33 µM; in the assay on RXF 393 renal, 3.37 µM. The TGI in the assay on NCI/ADR-RES ovarian amounted to 10.6 µM; in the assay on SF-268 CNS, 12.6 µM; with LOX IMVI melanoma, 2.85 µM; in the assay with UACC-62 melanoma, 14.3 µM.
`O=[N+]([O-])c1cccc2nc3ccccc3c(NCCC[N+]3([O-])CCOCC3)c12`: the TGI in the assay on M14 melanoma was 0.921 µM; with HOP-92 NSCLC, 0.29 µM; in the assay with PC-3 prostate, 2.22 µM; with UACC-257 melanoma, 1.29 µM; in the assay on MALME-3M melanoma, 0.347 µM; with HOP-62 NSCLC it was 0.689 µM. In addition, the TGI was 1.3 µM in the assay with SF-539 CNS; 0.538 µM in the assay on KM12 colon; 0.529 µM with NCI-H226 lung; 0.583 µM with CCRF-CEM leukemia; 0.984 µM with SK-MEL-28 melanoma; 0.366 µM in the assay on RXF 393 renal. Moreover, the TGI in the assay with NCI/ADR-RES ovarian is 39.2 µM; in the assay with SF-268 CNS, 1.91 µM; in the assay on LOX IMVI melanoma it was 1.62 µM; in the assay on UACC-62 melanoma it was 0.319 µM.
Regarding `CCCCCCCCCCN(CCCCCCCCCC)C(=O)COc1c2cc(C(C)(C)C)cc1Cc1cc(C(C)(C)C)cc(c1OCC(=O)N(CCCCCCCCCC)CCCCCCCCCC)Cc1cc(C(C)(C)C)cc(c1OCC(=O)N(CCCCCCCCCC)CCCCCCCCCC)Cc1cc(C(C)(C)C)cc(c1OCC(=O)N(CCCCCCCCCC)CCCCCCCCCC)C2`, the TGI is 8.01 µM in the assay on M14 melanoma; 11.4 µM in the assay with HOP-92 NSCLC; 21.8 µM with PC-3 prostate; 29.6 µM with UACC-257 melanoma; 28.7 µM with MALME-3M melanoma; 31.4 µM with HOP-62 NSCLC. The TGI with SF-539 CNS turned out to be 13.7 µM; with KM12 colon it was 24.5 µM; in the assay with NCI-H226 lung, 36.3 µM; with CCRF-CEM leukemia it was 14.1 µM; in the assay with SK-MEL-28 melanoma it was 24.1 µM; with RXF 393 renal, 22.3 µM. The TGI stood at 29.2 µM with NCI/ADR-RES ovarian, 29.9 µM in the assay on SF-268 CNS, 23.7 µM in the assay on LOX IMVI melanoma and 25.3 µM with UACC-62 melanoma.
Turning to `Cc1cc(=O)n2nc(CN3CCCCC3)sc2n1`, the TGI in the assay on M14 melanoma, with HOP-92 NSCLC, with PC-3 prostate, in the assay on UACC-257 melanoma, in the assay on MALME-3M melanoma and with HOP-62 NSCLC was greater than 100 µM in each case. Also, the TGI in the assay on SF-539 CNS, in the assay with KM12 colon, in the assay on NCI-H226 lung, in the assay on CCRF-CEM leukemia, with SK-MEL-28 melanoma and in the assay on RXF 393 renal was greater than 100 µM throughout. In addition, the TGI in the assay with NCI/ADR-RES ovarian, in the assay with SF-268 CNS, with LOX IMVI melanoma and in the assay with UACC-62 melanoma was greater than 100 µM each time.
`O=c1[nH]nc(Cc2ccccc2)[nH]1`: the TGI in the assay on M14 melanoma, in the assay on HOP-92 NSCLC, with PC-3 prostate, in the assay with UACC-257 melanoma, in the assay on MALME-3M melanoma and with HOP-62 NSCLC was greater than 100 µM in each case. In addition, the TGI in the assay on SF-539 CNS, with KM12 colon, in the assay with NCI-H226 lung, with CCRF-CEM leukemia, with SK-MEL-28 melanoma and with RXF 393 renal was greater than 100 µM each time. The TGI with NCI/ADR-RES ovarian, in the assay with SF-268 CNS, in the assay on LOX IMVI melanoma and in the assay on UACC-62 melanoma was greater than 100 µM each time.
